Reference: patent publication US20020137030A1, “METHOD OF DETECTION OF NEOPLASTIC CELLS” (JOHN HOPKINS UNIVERSITY SCHOOL OF MEDICINE, priority 1995, published 2002)
Entries after “also recorded” stand apart in the source; their conditions may differ.

Legend:
Assay type in all cases: cell-based, human
p16 [1] = experiment: Re-expression of p16 (RT-PCR) after 5-deoxyazacytidine in methylated lung and head and neck cancer cell lines
Experimental: (§1) Total RNA was extracted from cell lines by the guanidium-isothiocyanate-phenol-chloroform method (Chomczynski, P. & Sacchi, N., Analyt. Biochem, 162:156-159, 1987). Total RNA […] or poly-A (0.5 mg) was reverse transcribed by using Superscript II RNaseH^− (Gibco-BRL) reverse transcriptase (200 units) in the presence of hexamers (Pharmacia) and dNTP (Gibco-BRL). The cDNA was then amplified by PCR using the forward primer for exon 1 and the reverse primer for exons 2 or 3 (Kamb, et al., Science 264:436-440, 1994; and Serrano, et al., Nature 366:704-707, 1993) of p16 yielding a 428 or […] fragment respectively, which was run on 1.5% agarose gel. As a control, the […] fragment of p53 was amplified simultaneously. All reactions were repeated at least once. p16 primer sequence were as follows:
In the methylation studies, the cDNA was then amplified by PCR using the forward primer for exon 1 and the reverse primer for exons 2 or 3 of CDKN2/p16 yielding a 428 or […] fragment respectively, which was run on 1.5% agarose gel. As a control, the […] fragment of p53 (or β-actin) was amplified simultaneously. All reactions were repeated at least once.
(§2) Cells were grown in RPMI 1640 with 5-10% fetal calf serum depending on the growth requirements of each line. To assess re-expression, 5-deoxyazacytidine was supplemented to the medium at concentrations of […], and cells were harvested after three and five days.
(§3) In order to test the hypothesis that 5′ CpG island methylation of p16 indeed blocks gene expression, five methylated cell lines (3 NSCLC and 2 HNSCC) were subjected for 3-5 days to different dosages (0.3-1 mmol) of the demethylating agent 5-deoxyazacytidine.

5′ CpG island of p16 = experiment: Southern blot of 5′ CpG island methylation of p16 after 5-deoxyazacytidine
Experimental: Southern blots were performed as described (de Bustros, et al., Proc. Natl. Acad. Sci. U.S.A., 85:5693-5697, 1988). Briefly, […] of genomic DNA were digested with of EcoRI (10 U/mg) alone or in combination with the methylation-sensitive enzymes SmaI, EagI or SacII (15 U/mg each) for 16 h as specified by the manufacturers (Gibco-BRL and New England Biolabs), run on a 1% agarose gel, transferred to a Zeta-Probe GT nylon membrane (Bio-Rad), and probed with 25 ng of the 0.35 kb and 0.5 kb PCR products of exons 1 and 2 of p16 after random primer labelling (Feinberg, A. P. & Vogelstein, B. A, Annal. Biochem. 137:266-267, 1984). The primer sequences for the PE1 probe are as follows: sense 5′ GAAGAAAGAGGAGGGGCTG (SEQ ID NO:20), and antisense 5′ […] (SEQ ID NO:21), amplified with an annealing temperature of 60° C. by adding 3.6% formamide to the PCR buffer. The c-abl probe was provided by J.-P. Issa. The blots were then exposed in a phosphorimager (MolecularDynamics). All cases with a partial methylation pattern were repeated to exclude imcomplete enzymatic activity.
as §2, §3

p16 [2] = experiment: Re-expression of p16 mRNA (RT-PCR) after 5-deoxyazacytidine in colon cancer cell lines RKO and SW480; conditions: 3 days
Experimental: as §1
In the methylation studies, the cDNA was then amplified by PCR using the forward primer for exon 1 and the reverse primer for exons 2 or 3 of CDKN2/p16 yielding a 428 or […] fragment respectively, which was run on 1.5% agarose gel. As a control, the […] fragment of p53 (or β-actin) was amplified simultaneously. All reactions were repeated at least once. […]
In contrast, normal breast and 3 of 4 tested colon mucosa samples had readily detectable p16 message. […]

cancer cell lines = experiment: Effects on cell growth, morphology and viability of cancer cell lines; conditions: non-specific; also seen in lines with homozygous deletions of p16, independent of methylation status
Experimental: as §2
However, these effects were non-specific and observed in cell lines with homozygous deletions of p16, and with retention of p16 alleles independent of methylation status. Therefore, we cannot attribute these non-specific effects to re-expression of p16, since other genes might also be affected by azacytidine.

Nc1ncn([C@H]2C[C@H](O)[C@@H](CO)O2)c(=O)n1 [5-deoxyazacytidine]
re-expression of p16 message by RT-PCR (p16 [1]; five methylated cell lines (3 NSCLC and 2 HNSCC), 0.3-1 mmol, 3-5 days, each dose and time tested): re-expressed the message of p16
re-expression of p16 (FIG. 5b) (p16 [1]; methylated HNSCC cell lines (lanes 4 and 6)): re-express p16
reexpression of p16 message on reversal of methylation (p16 [1]; methylated cell lines, summary statement): reexpression of p16 message
re-expression of p16, 428 bp RT-PCR product (FIG. 5d) (p16 [1]; transcriptionally silenced lines U1752 and H157, all doses and times): re-express p16
demethylation of p16 5′ CpG island, EcoRI and SmaI Southern (FIG. 5c) (5′ CpG island of p16; line H157): Partial demethylation
demethylation of p16 5′ CpG island, EcoRI and SmaI Southern (FIG. 5c) (5′ CpG island of p16; line H 1752, 1 and 0.5 mmol, 3 days and 5 days, all dosages and time points): demethylation was seen
demethylation of the monitored CpG sites (5′ CpG island of p16; methylated cell lines, associated with reversal of the transcriptional block of p16): partial demethylation
p16 mRNA by RT-PCR after treatment (p16 [2]): p16 gene mRNA was seen; also recorded: detectable p16 mRNA
effects on cell growth, morphology, and viability (cancer cell lines): profound effects
